# Test results taken from patent US20240390335A1, “PHARMACEUTICAL COMPOSITION CONTAINING BETA-LACTAM COMPOUND AND USE THEREOF” (priority 2021, published 2024).
# Key:
# [1] = test system: Klebsiella pneumoniae; assay: Combined in vitro use, checkerboard dilution method; format: cell-based
# Experimental: (§1) Mueller-Hinton broth (MH broth) medium, Trypticase Soy Broth (TSB Broth) medium, purchased from BD Difco, Cockeysville, MD, USA; • 96-well plate: Corning Costar, Cambridge, MA, USA; • Test method: the checkerboard dilution method was used for determination.
# (§2) (1) Preparation of the test samples: 4 mg of each sample was taken and was prepared into a test solution at 2,048 μg/mL with MH broth, and the test solution was diluted two-fold in a 96-well plate to prepare solutions of a series of gradient concentrations.
# (§3) (2) Preparation of a bacteria solution: The test strains were amplified by Trypticase Soy Broth (TSB Broth) according to the CLSI/NCCLS standard.
# (§4) (3) Addition of the samples: 10 μL of the bacteria solution with a concentration of 6×10^5 CFU/mL was pipetted into each well of the 96-well plate. Each well contained the antibacterial drugs (the compound of formula (I-1) and the compound of formula (I-2)) diluted two-fold with broth and the aforementioned lactamase inhibitor or efflux pump inhibitor. […] The samples were mixed thoroughly. Three parallel experiments were set up for each concentration and the results were averaged. To the negative control group, 10 μL of the bacterial solution and 90 μL MH broth were added.
# (§5) (4) Incubation: the 96-well plate was placed in a 37° C. constant-temperature incubator for 18 hours, and the growth of the strains was observed.
# (§6) (5) Calculation: The in vitro effect of each drug-inhibitor combination was analyzed by calculating the FICI value: FICI=(MIC of drug A in the combination/MIC of drug A alone)+ (MIC of drug B in the combination/MIC of drug B alone).
# (§7) In order to ensure the reliability of the data, three repeated tests were conducted on different dates and the results were averaged.
# [2] = test system: Enterobacter cloacae; assay: as above; format: cell-based; settings: compound of formula (I-1) combined with avibactam; Enterobacter cloacae ATCC 2468
# Experimental: as §1, §2, §3, §4, §5, §6, §7
# [3] = test system: Escherichia coli; assay: as above; format: cell-based; settings: compound of formula (I-1) combined with avibactam
# Experimental: as §1, §2, §3, §4, §5, §6, §7
# [4] = test system: Klebsiella pneumoniae ATCC BAA2146 (NDM-1); settings: avibactam itself; stated as well known to those skilled in the art; cited from earlier work
# [5] = test system: drug-resistant Enterobacteriaceae; assay: MIC assay of individual compounds, summary over Enterobacteriaceae strains; format: cell-based; settings: against the aforementioned Enterobacteriaceae
# Experimental: (§8) Mueller-Hinton broth (MH broth) medium, Trypticase Soy Broth (TSB Broth) medium, purchased from BD Difco, Cockeysville, MD, USA; • 96-well plate: Corning Costar, Cambridge, MA, USA; • Test method: the antibacterial activities were tested by the microdilution method according to the CLSI/NCCLS standard.
# (§9) (1) Preparation of the test samples: 4 mg of each sample was taken, and was prepared into a test solution at 1,024 μg/mL with MH broth, and the test solution was diluted two-fold in a 96-well plate to prepare solutions of a series of gradient concentrations, the volume in each well being 90 μL.
# as §3
# (§10) (3) Addition of the samples: a bacteria solution with a concentration of 6×10^5 cfu/mL was prepared, and 10 μL of the bacteria solution was pipetted into each well of the 96-well plate. Three parallel experiments were set up for each concentration and the results were averaged. To the negative control group, 10 μL of the bacterial solution and 90 μL MH broth were added.
# (§11) (4) Incubation: the 96-well plate was placed in a 37° C. constant-temperature incubator for 18 hours, and the growth of the strains was observed. The drug concentration in the well with no microbial growth was recorded as the MIC.
# [6] = test system: Klebsiella pneumoniae; assay: MIC assay of individual compounds (microdilution, CLSI/NCCLS); format: cell-based; settings: individual compound
# Experimental: as §8, §9, §3, §10, §11
# [7] = test system: Enterobacter cloacae; assay: as above; format: cell-based; settings: individual compound
# Experimental: as §8, §9, §3, §10, §11
# [8] = test system: Escherichia coli; assay: as above; format: cell-based; settings: individual compound
# Experimental: as §8, §9, §3, §10, §11
# [9] = Escherichia coli CCPM(A)-P-071301
compound,measurement,setting,value
"NC(=O)[C@@H]1CC[C@@H]2CN1C(=O)N2OS(=O)(=O)O [Avibactam, avibactam]",MIC in combination,"[1]; compound of formula (I-1) combined with avibactam, Klebsiella pneumoniae ATCC 2146",2 µg/mL
same,MIC in combination,"[1]; compound of formula (I-1) combined with avibactam, Klebsiella pneumoniae ATCC 700603",0.5 µg/mL
same,MIC in combination,"[1]; compound of formula (I-1) combined with avibactam, Klebsiella pneumoniae CCPM(A)-0814R18",0.5 µg/mL
same,MIC in combination,"[1]; compound of formula (I-1) combined with avibactam, Klebsiella pneumoniae CCPM(A)-0814R33",2 µg/mL
same,MIC in combination,"[1]; compound of formula (I-1) combined with avibactam, Klebsiella pneumoniae CCPM(A)-0817R61",0.5 µg/mL
same,MIC in combination,"[1]; compound of formula (I-1) combined with avibactam, Klebsiella pneumoniae CCPM(A)-081705",8 µg/mL
same,MIC in combination,"[1]; compound of formula (I-1) combined with avibactam, Klebsiella pneumoniae CCPM(A)-081715",0.5 µg/mL
same,MIC in combination,"[1]; compound of formula (I-1) combined with avibactam, Klebsiella pneumoniae CCPM(A)-081716",8 µg/mL
same,MIC in combination,"[1]; compound of formula (I-1) combined with avibactam, Klebsiella pneumoniae CCPM(A)-081729",8 µg/mL
same,MIC in combination,"[1]; compound of formula (I-2) combined with avibactam, Klebsiella pneumoniae ATCC 2146",0.5 µg/mL
same,MIC in combination,"[1]; compound of formula (I-2) combined with avibactam, Klebsiella pneumoniae ATCC 700603",0.5 µg/mL
same,MIC in combination,"[1]; compound of formula (I-2) combined with avibactam, Klebsiella pneumoniae CCPM(A)-081715",4 µg/mL
same,MIC in combination,"[1]; compound of formula (I-2) combined with avibactam, Klebsiella pneumoniae CCPM(A)-081729",4 µg/mL
same,MIC in combination,[2],4 µg/mL
same,MIC in combination,[3]; Escherichia coli ATCC 2469,1 µg/mL
same,MIC in combination,[3]; [9],1 µg/mL
same,in vivo antibacterial effect on the test strain,[4],no in vivo antibacterial effect
same,activity of the inhibitor itself,[5],relatively weak activities
same,MIC,[6]; Klebsiella pneumoniae ATCC 2146,8 µg/mL
same,MIC,[6]; Klebsiella pneumoniae ATCC 700603,16 µg/mL
same,MIC,[6]; Klebsiella pneumoniae CCPM(A)-0814R18,16 µg/mL
same,MIC,[6]; Klebsiella pneumoniae CCPM(A)-0814R33,16 µg/mL
same,MIC,[6]; Klebsiella pneumoniae CCPM(A)-0817R61,32 µg/mL
same,MIC,[6]; Klebsiella pneumoniae CCPM(A)-081301,32 µg/mL
same,MIC,[6]; Klebsiella pneumoniae CCPM(A)-081705,16 µg/mL
same,MIC,[6]; Klebsiella pneumoniae CCPM(A)-081715,32 µg/mL
same,MIC,[6]; Klebsiella pneumoniae CCPM(A)-081716,16 µg/mL
same,MIC,[6]; Klebsiella pneumoniae CCPM(A)-081729,32 µg/mL
same,MIC,[7]; Enterobacter cloacae ATCC 2468,32 µg/mL
same,MIC,[7]; Enterobacter cloacae CCPM(A)-P-111719,32 µg/mL
same,MIC,[8]; Escherichia coli ATCC 2469,16 µg/mL
same,MIC,[8]; [9],16 µg/mL
